Values joined by “and” are separate entries in the source; they are usually repeats but may differ in a detail not shown here. Identical values can stand only once. Records with an inconclusive call do not appear.
System: MX-1 breast xenograft, intrarenal, nude mice, tumor weight
Assay: NCI In Vivo Anticancer Drug Screen. Data for tumor model Human Mammary Carcinoma MX-1 Xenograft (intrarenal inoculation) in NU/NU BALB/C (nude) mice
Conditions: endpoint: mean tumor weight change, higher = larger tumour
Summary of the method: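 Transplantable tumors established in mice; animals dosed with compound or vehicle; survival or tumor size then recorded. Result reported as treated (T) divided by vehicle control (C).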

[1] = dose: 100.0 mg/kg/injection, schedule: Q04DX003 (ip), vehicle: saline with Tween-80
[2] = dose: 200.0 mg/kg/injection, schedule: Q04DX003 (ip), vehicle: saline with Tween-80
[3] = dose: 400.0 mg/kg/injection, schedule: Q04DX003 (ip), vehicle: saline with Tween-80
[4] = dose: 150.0 mg/kg/injection, schedule: Q04DX003 (ip), vehicle: water
[5] = dose: 150.0 mg/kg/injection, schedule: Q04DX003 (ip), vehicle: Klucel (hydroxypropylcellulose) (HPC)
[6] = dose: 12.5 mg/kg/injection, schedule: Q04DX003 (ip), vehicle: saline with Tween-80

With `CC(=O)O[C@H]1C(=O)[C@@]2(C)[C@H]([C@H](OC(=O)c3ccccc3)[C@]3(O)C[C@H](OC(=O)[C@H](O)[C@@H](NC(=O)c4ccccc4)c4ccccc4)C(C)=C1C3(C)C)[C@]1(OC(C)=O)CO[C@@H]1C[C@@H]2O` the T/C (dose: 1.88 mg/kg/injection, schedule: Q01DX009 (ip), vehicle: Klucel (hydroxypropylcellulose) (HPC)) was 5 % of control and 16 % of control, the T/C (dose: 2.5 mg/kg/injection, schedule: Q01DX009 (ip), vehicle: Klucel (hydroxypropylcellulose) (HPC)) was 12 % of control and the T/C (dose: 3.75 mg/kg/injection, schedule: Q01DX009 (ip), vehicle: Klucel (hydroxypropylcellulose) (HPC)) was -80 % of control and -100 % of control. For the same molecule, the T/C (dose: 4.45 mg/kg/injection, schedule: Q01DX009 (ip), vehicle: Klucel (hydroxypropylcellulose) (HPC)) was -100 % of control, the T/C (dose: 5.0 mg/kg/injection, schedule: Q01DX009 (ip), vehicle: Klucel (hydroxypropylcellulose) (HPC)) was -61 % of control and the T/C (dose: 6.67 mg/kg/injection, schedule: Q01DX009 (ip), vehicle: Klucel (hydroxypropylcellulose) (HPC)) was -100 % of control. The T/C (dose: 7.5 mg/kg/injection, schedule: Q01DX009 (ip), vehicle: Klucel (hydroxypropylcellulose) (HPC)) was -100 % of control, the T/C (dose: 10.0 mg/kg/injection, schedule: Q01DX009 (ip), vehicle: Klucel (hydroxypropylcellulose) (HPC)) was -84 % of control and -100 % of control and the T/C (dose: 15.0 mg/kg/injection, schedule: Q01DX009 (ip), vehicle: Klucel (hydroxypropylcellulose) (HPC)) was -100 % of control.

With `CC1=C(/C=C/C(C)=C/C=C/C(C)=C/C(=O)Nc2ccc(O)cc2)C(C)(C)CCC1` the T/C [1] was 67 % of control, the T/C [2] was 81 % of control and the T/C [3] was 58 % of control. The T/C (dose: 800.0 mg/kg/injection, schedule: Q04DX003 (ip), vehicle: saline with Tween-80) was 69 % of control.

In the case of `c1ccc2c3c(c4c(c2c1)CN(C1CCCCC1)CO4)OCN(C1CCCCC1)C3`, the T/C (dose: 37.5 mg/kg/injection, schedule: Q04DX003 (ip), vehicle: water) is reported as 108 % of control, the T/C (dose: 75.0 mg/kg/injection, schedule: Q04DX003 (ip), vehicle: water) is reported as 82 % of control and 88 % of control and the T/C [4] is reported as 59 % of control. For the same molecule, the T/C (dose: 300.0 mg/kg/injection, schedule: Q04DX003 (ip), vehicle: water) was 111 % of control.

For `COc1ccc2c(c1)-c1nn(CCCN(C)C)c3ccc([N+](=O)[O-])c(c13)N2`, the T/C (dose: 12.5 mg/kg/injection, schedule: Q04DX003 (ip), vehicle: water) was 66 % of control and 79 % of control, the T/C (dose: 25.0 mg/kg/injection, schedule: Q04DX003 (ip), vehicle: water) was 53 % of control and 56 % of control and the T/C (dose: 50.0 mg/kg/injection, schedule: Q04DX003 (ip), vehicle: water) was 19 % of control and 38 % of control and 41 % of control. For the same molecule, the T/C (dose: 100.0 mg/kg/injection, schedule: Q04DX003 (ip), vehicle: water) was 13 % of control.

`CS(=O)(=O)CS(=O)(=O)OCCCl` was tested, and the T/C (dose: 21.6 mg/kg/injection, schedule: Q04DX003 (ip), vehicle: other) was 61 % of control, the T/C (dose: 36.0 mg/kg/injection, schedule: Q04DX003 (ip), vehicle: other) was 28 % of control and the T/C (dose: 37.5 mg/kg/injection, schedule: Q04DX003 (sc), vehicle: suspension in saline) was 106 % of control. The T/C (dose: 60.0 mg/kg/injection, schedule: Q04DX003 (ip), vehicle: other) was 25 % of control, the T/C (dose: 75.0 mg/kg/injection, schedule: Q04DX003 (sc), vehicle: suspension in saline) was 106 % of control and the T/C (dose: 99.6 mg/kg/injection, schedule: Q04DX003 (ip), vehicle: dextrose) was 100 % of control. For the same molecule, the T/C (dose: 99.6 mg/kg/injection, schedule: Q04DX003 (ip), vehicle: other) was 19 % of control, the T/C (dose: 100.0 mg/kg/injection, schedule: Q04DX003 (ip), vehicle: other) was 43 % of control and the T/C (dose: 150.0 mg/kg/injection, schedule: Q04DX003 (sc), vehicle: suspension in saline) was 54 % of control. The T/C (dose: 166.0 mg/kg/injection, schedule: Q04DX003 (ip), vehicle: dextrose) was 37 % of control, the T/C (dose: 166.0 mg/kg/injection, schedule: Q04DX003 (ip), vehicle: other) was 13 % of control and the T/C (dose: 166.7 mg/kg/injection, schedule: Q04DX003 (ip), vehicle: other) was 20 % of control. The T/C (dose: 276.67 mg/kg/injection, schedule: Q04DX003 (ip), vehicle: dextrose) was 19 % of control and the T/C (dose: 276.67 mg/kg/injection, schedule: Q04DX003 (ip), vehicle: other) was 10 % of control.

`COc1ccc(CC2C(=O)NC(C)C(=O)N(C)C3Cc4ccc(cc4)Oc4cc(ccc4O)CC(C(=O)NC(C)C(=O)NC(C)C(=O)N2C)N(C)C3=O)cc1` (centres undefined) was tested, and the T/C (dose: 8.0 mg/kg/injection, schedule: Q04DX003 (sc), vehicle: saline with Tween-80) was 27 % of control, the T/C (dose: 16.0 mg/kg/injection, schedule: Q04DX003 (sc), vehicle: saline with Tween-80) was 25 % of control and the T/C (dose: 32.0 mg/kg/injection, schedule: Q04DX003 (sc), vehicle: saline with Tween-80) was 3 % of control.

`C[C@@](O)(/C=C/[C@H]1CC=CC(=O)O1)[C@@H](C[C@@H](O)\C=C/C=C\C=C\CO)OP(=O)(O)O` was tested, and the T/C (dose: 1.5 mg/kg/injection, schedule: Q01DX009 (ip), vehicle: other) was 113 % of control, the T/C (dose: 6.0 mg/kg/injection, schedule: Q01DX009 (ip), vehicle: other) was 57 % of control and the T/C (dose: 12.0 mg/kg/injection, schedule: Q01DX009 (ip), vehicle: other) was 61 % of control. For the same molecule, the T/C (dose: 37.5 mg/kg/injection, schedule: Q04DX003 (sc), vehicle: other) was 29 % of control.

For `CCS/C(SC)=C(/c1ccccc1)[P+](c1ccccc1)(c1ccccc1)c1ccccc1`, the T/C (dose: 9.38 mg/kg/injection, schedule: Q04DX003 (sc), vehicle: Klucel (hydroxypropylcellulose) (HPC)) was 92 % of control, the T/C (dose: 18.75 mg/kg/injection, schedule: Q04DX003 (sc), vehicle: Klucel (hydroxypropylcellulose) (HPC)) was 111 % of control and the T/C (dose: 37.5 mg/kg/injection, schedule: Q04DX003 (sc), vehicle: Klucel (hydroxypropylcellulose) (HPC)) was 75 % of control.

With `CC(=O)C(Cl)C(=O)c1c(C)[nH]n(-c2ccccc2)c1=O` (centres undefined) the T/C [5] was 103 % of control.

With `Oc1cccc2ccccc12` the T/C [4] was 81 % of control.

With `Cc1ccc2c(c1)n([O-])c1cc(Cl)ccc1[n+]2=O` the T/C (dose: 150.0 mg/kg/injection, schedule: Q04DX003 (ip), vehicle: saline with Tween-80) was 84 % of control and 86 % of control and the T/C (dose: 300.0 mg/kg/injection, schedule: Q04DX003 (ip), vehicle: saline with Tween-80) was 56 % of control and 66 % of control.

With `OC1OCC(COc2ccc(Cl)cc2)OC1O` (centres undefined) the T/C [1] was 78 % of control, the T/C [2] was 75 % of control and the T/C [3] was 92 % of control.

In the case of `S=C(N/N=C1/CCCC/C1=N/NC(=S)N1CCOCC1)N1CCOCC1`, the T/C (dose: 6.25 mg/kg/injection, schedule: Q04DX003 (ip), vehicle: saline with Tween-80) is reported as 81 % of control, the T/C [6] is reported as 76 % of control and the T/C (dose: 25.0 mg/kg/injection, schedule: Q04DX003 (ip), vehicle: saline with Tween-80) is reported as 48 % of control.

For `CC1=C(C(N)=O)C(c2ccccc2)NC(=S)N1` (centres undefined), the T/C [5] was 87 % of control.

For `C[n+]1c(-c2ccc(NC(=O)c3ccc(C(=O)Nc4ccc(-c5cn6ccccc6[n+]5C)cc4)cc3)cc2)cn2ccccc21`, the T/C [6] was 41 % of control.

With `C1CCC2C[N-]CCC2C1.C1CCC2C[N-]CCC2C1.C1CCC2C[N-]CCC2C1.C1CCC2C[N-]CCC2C1.[Cl][Rh][Cl]` (centres undefined) the T/C (dose: 72.0 mg/kg/injection, schedule: Q04DX003 (sc), vehicle: saline with Tween-80) was 112 % of control, the T/C (dose: 144.0 mg/kg/injection, schedule: Q04DX003 (sc), vehicle: saline with Tween-80) was 124 % of control and the T/C (dose: 576.0 mg/kg/injection, schedule: Q04DX003 (sc), vehicle: saline with Tween-80) was 67 % of control.

In the case of `NC(N)=NS(=O)(=O)c1ccc(NCc2c3ccccc3nc3ccccc23)cc1`, the T/C [5] is reported as 38 % of control and 41 % of control, the T/C (dose: 300.0 mg/kg/injection, schedule: Q04DX003 (ip), vehicle: Klucel (hydroxypropylcellulose) (HPC)) is reported as 40 % of control and 43 % of control and the T/C (dose: 600.0 mg/kg/injection, schedule: Q04DX003 (ip), vehicle: Klucel (hydroxypropylcellulose) (HPC)) is reported as 17 % of control and 22 % of control. The T/C (dose: 1200.0 mg/kg/injection, schedule: Q04DX003 (ip), vehicle: Klucel (hydroxypropylcellulose) (HPC)) was 11 % of control and 17 % of control.

With `CC(=O)Oc1c[nH]c(=O)[nH]c1=O` the T/C (dose: 300.0 mg/kg/injection, schedule: Q04DX003 (sc), vehicle: distilled water + Tween-80) was 116 % of control, the T/C (dose: 600.0 mg/kg/injection, schedule: Q04DX003 (sc), vehicle: distilled water + Tween-80) was 118 % of control and the T/C (dose: 1200.0 mg/kg/injection, schedule: Q04DX003 (sc), vehicle: distilled water + Tween-80) was 102 % of control. The T/C (dose: 2400.0 mg/kg/injection, schedule: Q04DX003 (sc), vehicle: distilled water + Tween-80) was 83 % of control.

For `NC(Cc1ccc(N(CCCl)Cc2ccccc2)cc1)C(=O)O` (centres undefined), the T/C [1] was 6 % of control and 14 % of control, the T/C (dose: 120.0 mg/kg/injection, schedule: Q04DX003 (ip), vehicle: saline with Tween-80) was 3 % of control and the T/C [2] was 7 % of control and -15 % of control. For the same molecule, the T/C (dose: 333.33 mg/kg/injection, schedule: Q04DX003 (ip), vehicle: saline with Tween-80) was -90 % of control.

For `c1ccc2[nH]c(CN(CCN(Cc3nc4ccccc4[nH]3)Cc3nc4ccccc4[nH]3)Cc3nc4ccccc4[nH]3)nc2c1`, the T/C (dose: 6.25 mg/kg/injection, schedule: Q04DX003 (ip), vehicle: DMSO) was 59 % of control and 68 % of control and the T/C (dose: 50.0 mg/kg/injection, schedule: Q04DX003 (ip), vehicle: DMSO) was 62 % of control.

From PubChem BioAssay AID298 (DTP/NCI, 2004)
